Measured values reported in patent publication US20130281313A1, “PROGNOSTIC AND/OR PREDICTIVE BIOMARKERS AND BIOLOGICAL APPLICATIONS THEREOF” (INSTITUT GUSTAVE ROUSSY, priority 2010, published 2013).

Columns and labels:
Assay type in all cases: cell-based, human
A549 cells [1] = test: Cytofluorometric assessment of cell death (DiOC6(3)/PI co-staining); details: A549 cells; for apoptosis-inducing effect of CDDP (DiOC6(3)/PI co-staining or DNA loss, sub-G1 peak): CDDP irrespective of the presence of PN
Procedure: Unless otherwise specified, chemicals were purchased from Sigma-Aldrich (St. Louis, USA), culture media and supplements for cell culture from Gibco-Invitrogen (Carlsbad, USA) and plasticware from Corning (Corning, USA). […] Orlistat (Xenical®) was obtained from Roche (Basel, Switzerland). […] Undissolved material was removed by two sequential rounds of centrifugation at 12,000 G (5 min, room temperature, RT), supernatants were collected and stored at −80° C. under protection from light until use. In low-throughput experiments, all cell lines were treated with 2.5 mM pyridoxine (PN), exception made for A549 cells that received 5 mM PN.
To avoid depleting the siRNA library of selected sequences, siRNAs for validation experiments were purchased as custom molecules from Sigma-Aldrich. For low-throughput experiments, (see below for the transfection protocols employed in the siRNA screen), siRNA were transfected in A549 cells with Oligofectamine™ reagent (Invitrogen), following the manufacturer's instructions. Transfection with a non-targeting siRNA (siUNR) was employed as a negative control condition. Forty-eight hours after transfection, siRNA-mediated target downregulation was assessed by immunoblotting (see below).
All cytofluorometric determinations were carried out a FACSCalibur or a FACScan cytofluorometer (BD Biosciences, San Jose, USA) equipped with a 70 μm nozzle.
(§1) First line statistical analysis of cytofluorometric results was performed by using the CellQuest™ software (BD Biosciences), by gating on the events characterized by normal forward scatter and side scatter parameters. Apoptosis- and cell cycle-related data were further analyzed with Microsoft Excel (Microsoft Co., Redmond, USA) and statistical significance was assessed by means of two-tailed Student's t test (p<0.05).

A549 cells [2] = test: Transcriptome studies (mRNA microarrays)
Procedure: NSCLC A549 cells were treated with 100 μM CDDP, 75 μM C2-CER or 100 μM CdCl2 for 12 h, or with 50 μM CDDP, C2-CER or CdCl2 for 24 h. Thereafter, cells were collected and lysed for RNA extraction of following established procedures {de La Motte Rouge, 2007}. mRNA expression changes were quantified on G4112A 44 k Whole Human Genome Oligo Microarrays (Agilent Technologies, Santa Clara, USA), as previously reported {Castedo, 2006}. mRNA microarrays underwent standardized post-hybridization processing, image acquisition and analysis (see below) {Castedo, 2006}.
Data from microarray experiments were analyzed with the Rosetta Resolver® System (Rosetta Biosoftware, Seattle, USA). The threshold for statistical significance of probe signals (Intensity) was set at p=10^−5. […] For each mRNA, fold change (FC) was then defined as Intensitysample/Intensitycontrol when Intensitysample>Intensitycontrol, or as—(Intensitycontrol/Intensitysample) when Intensitysample<Intensitycontrol. Ratios were calculated as Intensitysample/Intensitycontrol.

A549 cells [3] = test: Intracellular levels of CDDP in cell lysates; details: 24 h, 25 μM CDDP alone or with PN and/or GSH, normalized to protein content
Procedure: (E,F) Intracellular levels of CDDP (normalized to protein content) in lysates from untransfected A549 cells (D) or A549 cells transfected with a PDXK-targeting siRNA (E), treated for 24 h with 25 μM CDDP alone or in combination with PN and/or GSH. Mean±SEM (n=6). *=p<0.05 (Studen's t test), as compared to untransfected (D) or siUNR transfected (E) cells treated with CDDP only. n.s.=non significant (Student's t test), as compared to cells treated with the same concentration of GSH (D) or to siPDXK-transfected cells treated with CDDP only (E).

A549 cells [4] = test: Targeted metabolomic studies (ATP, ADP, AMP, GSH; RRLC-MS); details: A549 cells incubated for 24 h with 5 mM GSH
Procedure: A549 cells were left untreated or treated with 25 μM CDDP alone or in combination with 5 mM PN, for 24 h. Thereafter, both attached (living) and detached (dying/dead) cells were harvested, washed once in cold PBS and pelleted (800 G for 5 min). Pellets were resuspended in 200 μL deionized water, briefly vortexed and sonicated. 800 μl ice-cold methanol was added, and samples were kept in ice for 15 min, vortexed and centrifuged at 13,000 G for 10 min at 4° C. Supernatants were dried in a SpeedVac drier (Thermo Scientific-Pierce) and stored at −80° C. until analysis. Pellets were resuspended in 150 μL 98:2 water/acetonitrile immediately before analytical determinations (see below).
ATP, ADP, AMP and GSH were quantified on a Rapid Resolution Liquid Chromatography (RRLC) 1200SL system coupled to a 6410 Triple Quadripole (QQQ) mass spectrometer (both from Agilent Technologies). For nucleotides, RRLC was performed on 150×2.1 mm, 3.5 μM Eclipse Plus columns (Agilent Technologies) with water containing 4 mM dimethylhexylamine (DMHA) plus 0.01% (v/v) acetic acid in channel A and acetonitrile in channel B, in gradient mode at a flow rate of 0.2 mL/min: t=0 min 2% B; t=9 min 32% B; t=10 min 95% B; T=12 min 95% B, re-equilibration time=6 min. Mass spectrometry was performed in positive electrospray ionization mode at +4 kV on the QQQ system operating in MRM mode. MRM transitions were optimized with direct infusions of ATP, ADP, and AMP standards with direct infusion, and four transitions were recorded for each compounds. Parent ions were adduct ions of DMHA and also proton adducts:
For GSH, RRLC was performed on a 150×2.1 mm, 3.5 μM Stable Bond AQ column (Agilent Technologies) with water containing 0.2% (v/v) acetic acid in channel A and methanol in channel B, in gradient mode at a flow rate of 0.3 mL/min: t=0 min 2% B; t=8 min 95% B; t=9 min 95% B; re-equilibration time=6 min. Mass spectrometry was performed as above. MRM transitions were optimized with direct infusion of GSH standards.
Data collection and analysis were performed with the MassHunter software (Agilent Technologies).

A549 cells [5] = test: Cell cycle distribution (PI staining, cytofluorometry); details: 10 μM CDDP alone or with PN and/or NAC
Procedure: To measure apoptosis-related parameters, living cells were labeled for 30 min at +37° C. with 40 nM 3,3′dihexyloxalocarbocyanine iodide (DiOC6(3), from Molecular Probes-Invitrogen, Eugene, USA), which quantifies the mitochondrial transmembrane potential (Δψm), plus 1 μg/mL propidium iodide (PI), which only accumulates in cells with ruptured plasma membrane {Galluzzi, 2009; Galluzzi, 2008; Galluzzi, 2007}. To assess cell cycle distribution, cells were collected, fixed by gentle vortexing in ice-cold 80% (v/v) ethanol (Carlo Erba Reagents, Milano, Italy) and stained with 50 μg/mL PI in 0.1% (w/v) D-glucose in PBS supplemented with 1 μg/mL (w/v) RNAse A {Mondragon, 2009; Mouhamad, 2007}. All cytofluorometric determinations were carried out a FACSCalibur or a FACScan cytofluorometer (BD Biosciences, San Jose, USA) equipped with a 70 μm nozzle.
as §1

[6] = followed by CDDP, DiOC6(3)/PI co-staining
[7] = 12 h, 100 μM CDDP, 75 μM C2-CER or 100 μM CdCl2, vs untreated cells
[8] = 24 h, 50 μM CDDP, C2-CER or CdCl2, vs untreated cells

## CCCCCCCCCCCCCCC(Br)C(=O)O (stereo not shown) [2-bromopalmitate]
A549 cells [1]; [6]
  epistatic interaction on CDDP-induced cell death, ZDHHC9 inhibition (2-bromopalmitate) combined with IL6R blockade (extracellular antibody): no significant epistatic interaction

## CCCCCCCCCCCCC/C=C/[C@@H](O)[C@H](CO)NC(C)=O [C2-CER, C2-ceramide]
A549 cells [2]; [7]
  Fold change, ADAR (NM_001111) transcript: n.s.
  Fold change, ALDH7AT (NM_001182) transcript: −1.85
  Fold change, CD151 (NM_004357) transcript: n.s.
  Fold change, CLIC1 (NM_001288) transcript: n.s.
  Fold change, COMMO9 (NM_014186) transcript: n.s.
  Fold change, COX5B (NM_001802) transcript: −1.62
  Fold change, COX7C (NM_001867) transcript: −1.33
  Fold change, DHRSX (NM_145177) transcript: n.s.
  Fold change, EBP (NM_006579) transcript: −2.80
  Fold change, EEF2 (NM_001901) transcript: 2.31
  Fold change, FDXK (NM_003681) transcript: −1.89
  Fold change, FN3KRP (NM_024619) transcript: −1.35
  Fold change, HDLBP (NM_005336) transcript: 1.69
  Fold change, HGD (NM_000187) transcript: −2.15
  Fold change, IL6R (NM_000565) transcript: 2.94
  Fold change, KHSRP (NM_003685) transcript: −2.29
  Fold change, LOC389727 (NM_372092) transcript: n.s.
  Fold change, MAT2A (NM_005911) transcript: −3.47
  Fold change, MOL1 (NM_021960) transcript: −1.35
  Fold change, MPP6 (NM_016447) transcript: n.s.
  Fold change, OSTCL (NM_145303) transcript: 2.25
  Fold change, P5MC5 (NM_002805) transcript: −2.20
  Fold change, PLK1S1 (NM_018474) transcript: 1.99
  Fold change, PPM1J (NM_005167) transcript: n.s.
  Fold change, RNF26 (NM_032015) transcript: n.s.
  Fold change, RRAD (NM_004185) transcript: n.s.
  Fold change, SEMA3G (NM_000379) transcript: n.s.
  Fold change, SLC22A16AS (NM_007105) transcript: −1.40
  Fold change, SOCS6 (NM_004232) transcript: n.s.
  Fold change, TMED1 (NM_006858) transcript: n.s.
  Fold change, TRIP4 (NM_016213) transcript: 1.83
  Fold change, UBE2L3 (NM_003347) transcript: −1.48
  Fold change, UBE21 (NM_014176) transcript: −2.92
  Fold change, W282 (NM_018029) transcript: n.s.
A549 cells [2]; [8]
  Fold change, ADAR (NM_001111) transcript: −1.45
  Fold change, ALDH7AT (NM_001182) transcript: −1.98
  Fold change, CD151 (NM_004357) transcript: n.s.
  Fold change, CLIC1 (NM_001288) transcript: n.s.
  Fold change, COMMO9 (NM_014186) transcript: n.s.
  Fold change, COX5B (NM_001802) transcript: −1.61
  Fold change, COX7C (NM_001867) transcript: n.s.
  Fold change, DHRSX (NM_145177) transcript: n.s.
  Fold change, EBP (NM_006579) transcript: −3.16
  Fold change, EEF2 (NM_001901) transcript: 2.62
  Fold change, FDXK (NM_003681) transcript: −1.91
  Fold change, FN3KRP (NM_024619) transcript: −1.67
  Fold change, HDLBP (NM_005336) transcript: 1.99
  Fold change, HGD (NM_000187) transcript: −4.23
  Fold change, IL6R (NM_000565) transcript: 3.52
  Fold change, KHSRP (NM_003685) transcript: −2.23
  Fold change, LOC389727 (NM_372092) transcript: n.s.
  Fold change, MAT2A (NM_005911) transcript: −2.96
  Fold change, MOL1 (NM_021960) transcript: −1.58
  Fold change, MPP6 (NM_016447) transcript: n.s.
  Fold change, OSTCL (NM_145303) transcript: 3.08
  Fold change, P5MC5 (NM_002805) transcript: −2.27
  Fold change, PLK1S1 (NM_018474) transcript: 1.93
  Fold change, PPM1J (NM_005167) transcript: n.s.
  Fold change, RNF26 (NM_032015) transcript: −2.11
  Fold change, RRAD (NM_004185) transcript: 1.55
  Fold change, SEMA3G (NM_000379) transcript: n.s.
  Fold change, SLC22A16AS (NM_007105) transcript: −1.60
  Fold change, SOCS6 (NM_004232) transcript: n.s.
  Fold change, TMED1 (NM_006858) transcript: n.s.
  Fold change, TRIP4 (NM_016213) transcript: 1.65
  Fold change, UBE2L3 (NM_003347) transcript: −1.47
  Fold change, UBE21 (NM_014176) transcript: −4.38
  Fold change, W282 (NM_018029) transcript: n.s.

## N[C@@H](CCC(=O)N[C@@H](CS)C(=O)NCC(=O)O)C(=O)O [GSH, glutathione]
A549 cells [3]
  intracellular accumulation of CDDP: strongly inhibited the accumulation of CDDP within the cells
A549 cells [1]; 25 or 75 μM CDDP plus PN
  protection against the cytotoxic effect of CDDP plus PN: protected cells against the cytotoxic effect of CDDP plus PN
A549 cells [1]
  apoptosis-inducing effect of CDDP (DiOC6(3)/PI co-staining or DNA loss, sub-G1 peak): blocked the apoptosis-inducing effect of CDDP
A549 cells [4]
  intracellular GSH levels upon extracellular GSH: had no significant impact on intracellular GSH levels

## CC(=O)N[C@@H](CS)C(=O)O [NAC, N-acetylcysteine]
A549 cells [1]
  apoptosis-inducing effect of CDDP (DiOC6(3)/PI co-staining or DNA loss, sub-G1 peak): blocked the apoptosis-inducing effect of CDDP
A549 cells [5]
  cell cycle arrest induced by CDDP: failed to reverse the cell cycle arrest induced by CDDP

## Cc1ccc(-c2cn3c4c(sc3n2)CCCC4)cc1 [cyclic pifithrin-α]
A549 cells [1]; [6]
  protection against CDDP, COX inhibition with sodium azide combined with TP53 inhibition with cyclic pifithrin-α: synergistic protection against CDDP
